Reference: US20130165475A1, “DEUTERIUM-ENRICHED HETEROCYCLIC COMPOUNDS AS KINASE INHIBITORS” (ASCEPION PHARMACEUTICALS, INC., priority 2010, published 2013)

Columns and labels:
[1] = test system: MDA-MB-231 human breast cancer cells; assay: In vivo anti-tumor efficacy, MDA-MB-231 xenograft; settings: MDA-MB-231 s.c. in nu/nu Balb/c athymic mice, 50 mg/kg once per day oral gavage
Method: (§1) Female (nu/nu) Balb/c athymic mice at 4-6 weeks of age were injected subcutaneously (s.c.) with MDA-MB-231 human breast cancer cells, A549 human non-small cell lung cancer cells, BEL7401 human liver cancer cells, HT-29 human colon cancer cells, or MKN-45 human gastric cancer cells (ATCC, 5×10^6 cells suspended in 100 μl DMEM medium). Treatment was initiated after the tumor mass grown from subcutaneous implanted tumor cells reaches a median volume of 200-400 mm^3. Mice were randomized into groups with three in each group such that the median tumor volume is nearly equal among all groups. […] Tumor volumes were assessed at least twice weekly by caliper measurement from the start of treatment. Tumor volume was calculated using the formula ½×L×W^2 (L: length of tumor's long axis, W: length of tumor's short axis). […] The efficacy of compounds in reducing tumor growth was assessed by the index Tumor Growth Inhibition (TGI). TGI for a given treatment period was calculated using the group mean tumor volumes according to the formula: TGI=100×(Vvehicle—group−VTreatment—group)÷VVehicle—group wherein VVehicle—group representing the mean tumor volume for the group treated with vehicle and VTreatment—group representing the mean tumor volume of the group treated with a compound.

[2] = test system: A549 human non-small cell lung cancer cells; assay: In vivo anti-tumor efficacy, A549 xenograft; settings: A549 s.c. in nu/nu Balb/c athymic mice, 50 mg/kg once per day oral gavage
Method: as §1

[3] = test system: BEL7404; assay: In vivo anti-tumor efficacy, BEL7404 xenograft; parameters: species or system human; settings: Liver cancer, BEL7404 s.c. in nu/nu Balb/c athymic mice, 50 mg/kg once per day oral gavage
[4] = test system: MKN-45 human gastric cancer cells; assay: In vivo anti-tumor efficacy, MKN-45 xenograft; settings: MKN-45 s.c. in nu/nu Balb/c athymic mice, 50 mg/kg once per day oral gavage
Method: as §1

Measured: Tumor Growth Inhibition (TGI)

Cl.[2H]C([2H])(c1ccnc(N)c1)n1ccc2c(NC(=O)Nc3cc(Cl)ccc3OC)cccc21 [Example 2, 1-[1-[(2-amino-4-pyridyl)-dideuteriomethyl]indol-4-yl]-3-(5-chloro-2-methoxyphenyl)urea hydrochloride]
A (the TGI is greater or equal to 50%): all assays above
